Measurements taken from US20150105252A1, “SUBSTITUTED PYRAZOLES AS HERBICIDES” (E I DU PONT DE NEMOURS AND COMPANY, priority 2013, published 2015).

Legend:
corn [1] = experiment: Test C preemergence; type: in vivo, Zea mays; conditions: for Plant response rating (scale of 0 to 100), Corn: Preemergence, 250 g ai/ha
In short: (§1)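 Scores of 0 (no effect) to 100 (complete control) were assigned by eye after 13–15 days, comparing treated pots with controls. Soil-applied (preemergence) treatments went onto seeds in loam and sand; foliar (postemergence) treatments onto 1- to 4-leaf plants in peat medium.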

waterhemp = experiment: Test C preemergence; type: in vivo, Amaranthus rudis; conditions: for Plant response rating (scale of 0 to 100), Waterhemp: Preemergence, 250 g ai/ha
In short: as §1

galium [2] = experiment: Test C postemergence; type: in vivo, Galium aparine; conditions: for Plant response rating (scale of 0 to 100 where 0 is no effect and 100 is complete control), Galium: Postemergence, 31 g ai/ha, visually evaluated after 13 to 15 days; for Galium plant response rating / Plant response rating, Galium: postemergence; for Galium plant response rating: 62 g ai/ha, scale 0 to 100
In short: as §1

blackgrass = experiment: Test C postemergence; type: in vivo, Alopecurus myosuroides; conditions: for Plant response rating (scale of 0 to 100 where 0 is no effect and 100 is complete control), Blackgrass: Postemergence, 31 g ai/ha, visually evaluated after 13 to 15 days; for Blackgrass plant response rating / Plant response rating, Blackgrass: postemergence; for Blackgrass plant response rating: 62 g ai/ha, scale 0 to 100
In short: as §1

nutsedge, yellow = experiment: Test C preemergence; type: in vivo, Cyperus esculentus; conditions: for Plant response rating (scale of 0 to 100), Nutsedge, Yellow: Preemergence, 250 g ai/ha
In short: as §1

galium [3] = experiment: Test C preemergence; type: in vivo, Galium aparine; conditions: for Plant response rating (scale of 0 to 100), Galium: Preemergence, 250 g ai/ha
In short: as §1

barnyardgrass = experiment: Test C postemergence; type: in vivo, Echinochloa crus-galli; conditions: for Plant response rating (scale of 0 to 100 where 0 is no effect and 100 is complete control), Barnyardgrass: Postemergence, 31 g ai/ha, visually evaluated after 13 to 15 days; for Barnyardgrass plant response rating / Plant response rating, Barnyardgrass: postemergence; for Barnyardgrass plant response rating: 62 g ai/ha, scale 0 to 100
In short: as §1

foxtail, giant [4] = experiment: Test C postemergence; type: in vivo, Setaria faberii; conditions: for Plant response rating (scale of 0 to 100 where 0 is no effect and 100 is complete control), Foxtail, Giant: Postemergence, 31 g ai/ha, visually evaluated after 13 to 15 days; for Foxtail, Giant plant response rating / Plant response rating, Foxtail, Giant: postemergence; for Foxtail, Giant plant response rating: 62 g ai/ha, scale 0 to 100
In short: as §1

ryegrass, Italian = experiment: Test C preemergence; type: in vivo, Lolium multiflorum; conditions: for Plant response rating (scale of 0 to 100), Ryegrass, Italian: Preemergence, 250 g ai/ha
In short: as §1

corn [5] = experiment: Test A postemergence; type: in vivo, Zea mays
In short: (§2)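 Both timings tested concurrently in loam/sand soil: preemergence by directed soil spray, postemergence on plants of 2–10 cm at the one- to two-leaf stage. Greenhouse holding period was approximately 10 days before visual injury assessment (0–100, 0 = no effect).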

foxtail, giant [6] = experiment: Test A postemergence; type: in vivo, Setaria faberii
In short: as §2

morningglory = experiment: Test C postemergence; type: in vivo, Ipomoea coccinea; conditions: for Plant response rating (scale of 0 to 100 where 0 is no effect and 100 is complete control), Morningglory: Postemergence, 31 g ai/ha, visually evaluated after 13 to 15 days; for Morningglory plant response rating / Plant response rating, Morningglory: postemergence; for Morningglory plant response rating: 62 g ai/ha, scale 0 to 100
In short: as §1

[7] = preemergence, 31 g ai/ha, visual rating, scale 0 to 100 (0 no effect, 100 complete control), 13 to 15 days
[8] = preemergence, 62 g ai/ha, scale 0 to 100 (0 no effect, 100 complete control), 13 to 15 days
[9] = preemergence, 125 g ai/ha, scale 0 to 100, 0 is no effect, 100 is complete control
[10] = 250 g ai/ha, scale 0 to 100 (0 no effect, 100 complete control)
[11] = 125 g ai/ha, scale 0 to 100, 0 no effect, 100 complete control
[12] = Postemergence, 500 g ai/ha, 0 to 100 scale (0 no effect, 100 complete control)
[13] = postemergence, 125 g ai/ha, about 10 days, visual rating on 0 to 100 scale (0 no effect, 100 complete control)
[14] = preemergence, 125 g ai/ha, 13 to 15 days, scale 0 to 100, 0 = no effect, 100 = complete control

CCc1cc(C(=O)NOC(C)C)nn1Cc1ccnc(OC(F)F)c1 [Compound 126]
Plant response rating (scale of 0 to 100), Corn (corn [1]): 98 | Corn plant response rating (corn [1]; [7]): 25 | Corn plant response rating (corn [1]; [8]): 65 | Corn plant response rating (corn [1]; [9]): 90 | Plant response rating (scale of 0 to 100), Waterhemp (waterhemp): 100 | Waterhemp plant response rating (waterhemp; [7]): 90 | Waterhemp plant response rating (waterhemp; [8]): 98 | Waterhemp plant response rating (waterhemp; [9]): 100 | Plant response rating (scale of 0 to 100 where 0 is no effect and 100 is complete control), Galium (galium [2]): 50 | Galium plant response rating (galium [2]): 50 | Plant response rating, Galium (galium [2]; [10]): 70 | Plant response rating, Galium (galium [2]; [11]): 55 | Plant response rating (scale of 0 to 100 where 0 is no effect and 100 is complete control), Blackgrass (blackgrass): 5 | Blackgrass plant response rating (blackgrass): 5 | Plant response rating, Blackgrass (blackgrass; [10]): 25 | Plant response rating, Blackgrass (blackgrass; [11]): 20 | Plant response rating (scale of 0 to 100), Nutsedge, Yellow (nutsedge, yellow): 90 | Nutsedge, Yellow plant response rating (nutsedge, yellow; [7]): 25 | Nutsedge, Yellow plant response rating (nutsedge, yellow; [8]): 45 | Nutsedge, Yellow plant response rating (nutsedge, yellow; [9]): 75 | Plant response rating (scale of 0 to 100), Galium (galium [3]): 100 | Galium plant response rating (galium [3]; [7]): 85 | Galium plant response rating (galium [3]; [8]): 98 | Galium plant response rating (galium [3]; [9]): 100 | Plant response rating (scale of 0 to 100 where 0 is no effect and 100 is complete control), Barnyardgrass (barnyardgrass): 5 | Barnyardgrass plant response rating (barnyardgrass): 5 | Plant response rating, Barnyardgrass (barnyardgrass; [10]): 40 | Plant response rating, Barnyardgrass (barnyardgrass; [11]): 10 | Plant response rating (scale of 0 to 100 where 0 is no effect and 100 is complete control), Foxtail, Giant (foxtail, giant [4]): 10 | Foxtail, Giant plant response rating (foxtail, giant [4]): 20 | Plant response rating, Foxtail, Giant (foxtail, giant [4]; [10]): 60 | Plant response rating, Foxtail, Giant (foxtail, giant [4]; [11]): 20 | Plant response rating (scale of 0 to 100), Ryegrass, Italian (ryegrass, Italian): 90 | Ryegrass, Italian plant response rating (ryegrass, Italian; [7]): 15 | Ryegrass, Italian plant response rating (ryegrass, Italian; [8]): 60 | Ryegrass, Italian plant response rating (ryegrass, Italian; [9]): 90 | Corn plant response rating (corn [5]; [12]): 90 | Corn plant response rating (corn [5]; [13]): 90 | Foxtail, Giant plant response rating (foxtail, giant [6]; [12]): 90 | Foxtail, Giant plant response rating (foxtail, giant [6]; [13]): 90 | Plant response rating (scale of 0 to 100 where 0 is no effect and 100 is complete control), Morningglory (morningglory): 40 | Morningglory plant response rating (morningglory): 60 | Plant response rating, Morningglory (morningglory; [10]): 80 | Plant response rating, Morningglory (morningglory; [11]): 80

CCOc1cc(C(=O)NCC(F)(F)F)nn1Cc1ccnc(OC(F)F)c1 [Compound 128]
Plant response rating (scale of 0 to 100), Corn (corn [1]): 70 | Corn plant response rating (corn [1]; [7]): 15 | Corn plant response rating (corn [1]; [8]): 45 | Plant response rating, Corn (corn [1]; [14]): 65 | Plant response rating (scale of 0 to 100), Waterhemp (waterhemp): 100 | Waterhemp plant response rating (waterhemp; [7]): 100 | Waterhemp plant response rating (waterhemp; [8]): 100 | Plant response rating, Waterhemp (waterhemp; [14]): 100 | Plant response rating (scale of 0 to 100 where 0 is no effect and 100 is complete control), Galium (galium [2]): 60 | Galium plant response rating (galium [2]): 65 | Plant response rating, Galium (galium [2]; [10]): 70 | Plant response rating, Galium (galium [2]; [11]): 80 | Plant response rating (scale of 0 to 100 where 0 is no effect and 100 is complete control), Blackgrass (blackgrass): 10 | Blackgrass plant response rating (blackgrass): 5 | Plant response rating, Blackgrass (blackgrass; [10]): 80 | Plant response rating, Blackgrass (blackgrass; [11]): 10 | Plant response rating (scale of 0 to 100), Nutsedge, Yellow (nutsedge, yellow): 90 | Nutsedge, Yellow plant response rating (nutsedge, yellow; [7]): 45 | Nutsedge, Yellow plant response rating (nutsedge, yellow; [8]): 75 | Plant response rating, Nutsedge, Yellow (nutsedge, yellow; [14]): 80 | Plant response rating (scale of 0 to 100), Galium (galium [3]): 100 | Galium plant response rating (galium [3]; [7]): 80 | Galium plant response rating (galium [3]; [8]): 80 | Plant response rating, Galium (galium [3]; [14]): 100 | Plant response rating (scale of 0 to 100 where 0 is no effect and 100 is complete control), Barnyardgrass (barnyardgrass): 5 | Barnyardgrass plant response rating (barnyardgrass): 5 | Plant response rating, Barnyardgrass (barnyardgrass; [10]): 60 | Plant response rating, Barnyardgrass (barnyardgrass; [11]): 15 | Plant response rating (scale of 0 to 100 where 0 is no effect and 100 is complete control), Foxtail, Giant (foxtail, giant [4]): 5 | Foxtail, Giant plant response rating (foxtail, giant [4]): 10 | Plant response rating, Foxtail, Giant (foxtail, giant [4]; [10]): 85 | Plant response rating, Foxtail, Giant (foxtail, giant [4]; [11]): 25 | Plant response rating (scale of 0 to 100), Ryegrass, Italian (ryegrass, Italian): 95 | Ryegrass, Italian plant response rating (ryegrass, Italian; [7]): 5 | Ryegrass, Italian plant response rating (ryegrass, Italian; [8]): 70 | Plant response rating, Ryegrass, Italian (ryegrass, Italian; [14]): 90 | Corn plant response rating (corn [5]; [12]): 90 | Corn plant response rating (corn [5]; [13]): 90 | Foxtail, Giant plant response rating (foxtail, giant [6]; [12]): 100 | Foxtail, Giant plant response rating (foxtail, giant [6]; [13]): 100 | Plant response rating (scale of 0 to 100 where 0 is no effect and 100 is complete control), Morningglory (morningglory): 75 | Morningglory plant response rating (morningglory): 65 | Plant response rating, Morningglory (morningglory; [10]): 80 | Plant response rating, Morningglory (morningglory; [11]): 45
